Values after ≈ are worked out from the molar mass of the structure shown. Active and inactive are the calls of the source. No cut-off for these calls is given here.
Legend:
Enterococcus faecalis [1] = experiment: Bactericidal activity against vancomycin-resistant Enterococcus faecalis ATCC51299 assessed as reduction in number of bacteria at 1 time MIC measured within 40 mins by time-kill assay; assay type: functional, organism-based
Enterococcus faecalis [2] = experiment: Antibacterial activity against vancomycin-resistant Enterococcus faecalis ATCC51299 at sub-MIC concentration measured after 24 hrs by CLSI based broth microdilution method; assay type: functional, organism-based
Cell membrane [3] = experiment: Induction of cell membrane damage in vancomycin-resistant Enterococcus faecalis ATCC51299 assessed as increase in nucleic acid leakage at 4 times MIC incubated for 2 hrs by absorbance based analysis; assay type: subcellular
Enterococcus faecalis [4] = experiment: Induction of morphological changes in vancomycin-resistant Enterococcus faecalis ATCC51299 assessed as appearance of clustered bacterial surface at 4 times MIC measured for 5 hrs by field emission scanning electron microscopy based analysis; assay type: functional, organism-based
Staphylococcus aureus [5] = experiment: Antibacterial activity against methicillin-resistant Staphylococcus aureus measured after 24 hrs by CLSI based broth microdilution method; assay type: functional
Cell membrane [6] = experiment: Induction of cell membrane depolarization in vancomycin-resistant Enterococcus faecalis ATCC51299 assessed as reduction in fluorescence intensity measured for 30 mins by DiSC3(5) dye-based fluorescence assay; assay type: subcellular
Enterococcus faecalis [7] = experiment: Induction of morphological changes in vancomycin-resistant Enterococcus faecalis ATCC51299 assessed as appearance of died bacterial surface at 4 times MIC measured for 5 hrs by field emission scanning electron microscopy based analysis; assay type: functional, organism-based
Enterococcus faecalis [8] = experiment: Antimicrobial activity against vancomycin-resistant Enterococcus faecalis ATCC51299 assessed as reduction in bacterial growth in presence of phosphatidylglycerol by checkerboard broth dilution method; assay type: functional, organism-based
Staphylococcus aureus [9] = experiment: Bactericidal activity against methicillin-resistant Staphylococcus aureus assessed as reduction in number of bacteria at 2 times MIC measured within 15 mins by time-kill assay; assay type: functional, organism-based
Enterococcus faecalis [10] = experiment: Antimicrobial activity against vancomycin-resistant Enterococcus faecalis ATCC51299 assessed as reduction in bacterial growth in presence of phosphatidylethanolamine by checkerboard broth dilution method; assay type: functional, organism-based
Enterococcus faecalis [11] = experiment: Bactericidal activity against vancomycin-resistant Enterococcus faecalis ATCC51299 assessed as reduction in number of bacteria at 2 times MIC measured within 15 mins by time-kill assay; assay type: functional, organism-based
Enterococcus faecalis [12] = experiment: Antimicrobial activity against vancomycin-resistant Enterococcus faecalis ATCC51299 assessed as increase in cell membrane fluidity at upto 4 times MIC incubated for 35 mins by Laurdan-GP dye based spectramax gemini XPS microplate reader analysis; assay type: functional, organism-based
Enterococcus faecalis [13] = experiment: Induction of morphological changes in vancomycin-resistant Enterococcus faecalis ATCC51299 assessed as appearance of flocculated bacterial surface at 4 times MIC measured for 5 hrs by field emission scanning electron microscopy based analysis; assay type: functional, organism-based
Enterococcus faecalis [14] = experiment: Induction of morphological changes in vancomycin-resistant Enterococcus faecalis ATCC51299 assessed as appearance of ruptured bacterial surface at 4 times MIC measured for 5 hrs by field emission scanning electron microscopy based analysis; assay type: functional, organism-based
Enterococcus faecalis [15] = experiment: Antimicrobial activity against vancomycin-resistant Enterococcus faecalis ATCC51299 assessed as reduction in bacterial growth in presence of peptidoglycan by checkerboard broth dilution method; assay type: functional, organism-based
Staphylococcus aureus [16] = experiment: Induction of morphological changes in biofilm of methicillin-resistant Staphylococcus aureus assessed as decrease in biofilm density at 1 to 4 times MIC incubated for 24 hrs by DAPI staining based fluorescence microscopy analysis; assay type: functional, organism-based
Staphylococcus aureus [17] = experiment: Induction of morphological changes in biofilm of methicillin-resistant Staphylococcus aureus assessed as appearance of destroyed biofilm at 1 to 4 times MIC incubated for 24 hrs by DAPI staining based fluorescence microscopy analysis; assay type: functional, organism-based
Staphylococcus aureus [18] = experiment: Antimicrobial activity against methicillin-resistant Staphylococcus aureus assessed as reduction in bacterial growth in presence of phosphatidylethanolamine by checkerboard broth dilution method; assay type: functional, organism-based
Cell membrane [19] = experiment: Induction of cell membrane damage in methicillin-resistant Staphylococcus aureus assessed as increase in nucleic acid leakage at 4 times MIC incubated for 2 hrs by absorbance based analysis; assay type: subcellular
Staphylococcus aureus [20] = experiment: Induction of morphological changes in methicillin-resistant Staphylococcus aureus assessed as appearance of clustered bacterial surface at 4 times MIC measured for 5 hrs by field emission scanning electron microscopy based analysis; assay type: functional, organism-based
Staphylococcus aureus [21] = experiment: Induction of morphological changes in methicillin-resistant Staphylococcus aureus assessed as appearance of flocculated bacterial surface at 4 times MIC measured for 5 hrs by field emission scanning electron microscopy based analysis; assay type: functional, organism-based
Enterococcus faecalis [22] = experiment: Antibacterial activity against vancomycin-resistant Enterococcus faecalis ATCC51299 measured after 24 hrs by CLSI based broth microdilution method; assay type: functional
Enterococcus faecalis [23] = experiment: Induction of morphological changes in biofilm of vancomycin-resistant Enterococcus faecalis ATCC51299 assessed as decrease in biofilm density at 1 to 4 times MIC incubated for 24 hrs by DAPI staining based fluorescence microscopy analysis; assay type: functional, organism-based
Staphylococcus aureus [24] = experiment: Induction of morphological changes in methicillin-resistant Staphylococcus aureus assessed as appearance of ruptured bacterial surface at 4 times MIC measured for 5 hrs by field emission scanning electron microscopy based analysis; assay type: functional, organism-based
Cell membrane [25] = experiment: Induction of cell membrane damage in vancomycin-resistant Enterococcus faecalis ATCC51299 assessed as increase in ROS accumulation at 4 times MIC incubated for 1 hr by fluorescence based analysis; assay type: subcellular
RAW264.7 = experiment: Cytotoxicity against mouse RAW264.7 cells at 16 ug/ml incubated for 24 hrs by MTT assay; assay type: toxicity, cell-based; conditions: raw264.7, 24 h, dose 16 µg/ml
Enterococcus faecalis [26] = experiment: Antibacterial activity against vancomycin-resistant Enterococcus faecalis ATCC51299 measured after 20 passages by broth microdilution method; assay type: functional, organism-based
Enterococcus faecalis [27] = experiment: Induction of morphological changes in biofilm of vancomycin-resistant Enterococcus faecalis ATCC51299 assessed as appearance of broken biofilm at 1 to 4 times MIC incubated for 24 hrs by DAPI staining based fluorescence microscopy analysis; assay type: functional, organism-based
Staphylococcus aureus [28] = experiment: Bactericidal activity against methicillin-resistant Staphylococcus aureus assessed as reduction in number of bacteria at 1 time MIC measured within 40 mins by time-kill assay; assay type: functional, organism-based
Enterococcus faecalis [29] = experiment: Bactericidal activity against vancomycin-resistant Enterococcus faecalis ATCC51299 measured after 24 hrs by CLSI based broth microdilution method; assay type: functional
Enterococcus faecalis [30] = experiment: Antibiofilm activity in vancomycin-resistant Enterococcus faecalis ATCC51299 assessed as increase in biofilm destruction incubated for 24 hrs by crystal violet staining based analysis; assay type: functional, organism-based
Cell membrane [31] = experiment: Induction of cell membrane depolarization in methicillin-resistant Staphylococcus aureus assessed as reduction in fluorescence intensity measured for 30 mins by DiSC3(5) dye-based fluorescence assay; assay type: subcellular
Staphylococcus aureus [32] = experiment: Antimicrobial activity against methicillin-resistant Staphylococcus aureus assessed as reduction in bacterial growth in presence of peptidoglycan by checkerboard broth dilution method; assay type: functional, organism-based
Enterococcus faecalis [33] = experiment: Induction of morphological changes in biofilm of vancomycin-resistant Enterococcus faecalis ATCC51299 assessed as appearance of destroyed biofilm at 1 to 4 times MIC incubated for 24 hrs by DAPI staining based fluorescence microscopy analysis; assay type: functional, organism-based
Staphylococcus aureus [34] = experiment: Antibiofilm activity in methicillin-resistant Staphylococcus aureus assessed as increase in biofilm destruction incubated for 24 hrs by crystal violet staining based analysis; assay type: functional, organism-based
Cell membrane [35] = experiment: Induction of cell membrane damage in methicillin-resistant Staphylococcus aureus assessed as increase in ROS accumulation at 4 times MIC incubated for 1 hr by fluorescence based analysis; assay type: subcellular
Staphylococcus aureus [36] = experiment: Antibacterial activity against methicillin-resistant Staphylococcus aureus measured after 20 passages by broth microdilution method; assay type: functional, organism-based

Compound	Activity (Enterococcus faecalis [1])	Activity (Enterococcus faecalis [2])	Activity (Cell membrane [3])	Activity (Enterococcus faecalis [4])	Activity (Staphylococcus aureus [5])	MIC (Staphylococcus aureus [5])	Activity (Cell membrane [6])	Activity (Enterococcus faecalis [7])	Activity (Enterococcus faecalis [8])	Activity (Staphylococcus aureus [9])	Activity (Enterococcus faecalis [10])	Activity (Enterococcus faecalis [11])	Activity (Enterococcus faecalis [12])	Activity (Enterococcus faecalis [13])	Activity (Enterococcus faecalis [14])	Activity (Enterococcus faecalis [15])	Activity (Staphylococcus aureus [16])	Activity (Staphylococcus aureus [17])	Activity (Staphylococcus aureus [18])	Activity (Cell membrane [19])	also measured
C=CCCCCCCCCCCCc1cc(O)cc(O)c1C(=O)O	Active	Active	Active	Active	Active	4 µg/mL (≈ 12 µM)	Active	Active	Active	Active	inactive	Active	Active	Active	Active	inactive	Active	Active	inactive	Active	Activity (Staphylococcus aureus [20]): Active; Activity (Staphylococcus aureus [21]): Active; MIC (Enterococcus faecalis [22]): 4 µg/mL (≈ 12 µM); Activity (Enterococcus faecalis [23]): Active; Activity (Staphylococcus aureus [24]): Active; Activity (Cell membrane [25]): Active; Activity (RAW264.7): Non-Toxic; Activity (Enterococcus faecalis [26]): inactive; Activity (Enterococcus faecalis [27]): Active; Activity (Staphylococcus aureus [28]): Active; MBC (Enterococcus faecalis [29]): 4 µg/mL (≈ 12 µM); Activity (Enterococcus faecalis [30]): Dose-Dependent Effect; Activity (Cell membrane [31]): Active; Activity (Staphylococcus aureus [32]): Active; Activity (Enterococcus faecalis [33]): Active; Activity (Staphylococcus aureus [34]): Dose-Dependent Effect; Activity (Cell membrane [35]): Active; Activity (Staphylococcus aureus [36]): inactive
C=CCCCCCCCCCCCc1cc(O)cc(O)c1	Active	Active	Active	Active	Active	4 µg/mL (≈ 13.8 µM)	Active	Active	Active	Active	inactive	Active	Active	Active	Active	inactive	Active	Active	inactive	Active	Activity (Staphylococcus aureus [20]): Active; Activity (Staphylococcus aureus [21]): Active; MIC (Enterococcus faecalis [22]): 4 µg/mL (≈ 13.8 µM); Activity (Enterococcus faecalis [23]): Active; Activity (Staphylococcus aureus [24]): Active; Activity (Cell membrane [25]): Active; Activity (RAW264.7): Non-Toxic; Activity (Enterococcus faecalis [26]): inactive; Activity (Enterococcus faecalis [27]): Active; Activity (Staphylococcus aureus [28]): Active; MBC (Enterococcus faecalis [29]): 4 µg/mL (≈ 13.8 µM); Activity (Enterococcus faecalis [30]): Dose-Dependent Effect; Activity (Cell membrane [31]): Active; Activity (Staphylococcus aureus [32]): Active; Activity (Enterococcus faecalis [33]): Active; Activity (Staphylococcus aureus [34]): Dose-Dependent Effect; Activity (Cell membrane [35]): Active; Activity (Staphylococcus aureus [36]): inactive
